Where “and” joins values, the source holds several entries; their conditions need not be identical. Identical values can stand only once.

This is an account of results in US8883740B2, “Peptides, compositions, and uses thereof” (Fundacao de Amparoa Pesquisa do Estado de Sao Paulo-Fapesp, priority 2008, dated 2014).

Assay [1] deals with endothelial cells (HUVEC). The experiment in a line: Cell viability, MTT colorimetric assay under reduced serum. The class given is cell-based. As to conditions: 5 μg/ml; 48 hours; RPMI 1640 with 1% FBS; vs control without peptide. How it is done: Tests for cell viability (% viability) was realized utilizing reduced serum conditions and MTT (3-[4,5-Dimethylthiazol-2-yl]-2,5-Diphenyltetrazolium bromide) colorometric assay (Mosmann, 1983). The results are illustrated in FIGS. 1 to 3.
FIG. 1 illustrates the effect of peptides (5 μg/ml) on cell viability (% viability) of endothelial cells (HUVEC) when incubated together for 48 hours in RPMI 1640 with 1% FBS. The control has cells incubated in RPMI 1640 with 1% FBS (with no peptide).
FIG. 2 illustrates the effect of different concentrations of CNF011.05B on cell viability (% viability) of endothelial cells when incubated together for 120 hours in RPMI supplemented with 1% FBS.
FIG. 3 illustrates the effect of different concentrations of CNF011.05D on cell viability (% viability) of endothelial cells when incubated together for 48 hours in RPMI supplemented with 1% FBS.
In general terms: Formazan colour is commonly taken as a measure of viable cells.

The test system of assay [2] is punch wounds. Nature of the assay: Wound healing in pigs, 8 mm punch wounds, granulation tissue filling. The class given is in vivo, Domestic Yorkshire Crossbred pigs. How it is done: Levels of granulation tissue formation—a marker of the proliferative phase of Healing (Cascade)—were assessed in punch wounds after daily administrations of CNF011.05D or positive control (Bacaplermin gel 0.01%). The wounded animals were Domestic Yorkshire Crossbred pigs of 20 weeks of age, which were anesthesized and operated on the dorsal side of their backs. Following clipping of hair and scrub sterilization, 8 full thickness wounds were made in each pig using an 8 mm biopsy punch.
Following wounding and drying with sterile gauze, the wounds were subjected to application with different treatments (see Table 5 and 6) followed by bandaging. Long-term postoperative monitoring included daily inspection of the surgical sites for 14 days. The daily inspection included cleansing of the wounds, reapplication of the same treatments—Standard Care or Positive Control or CNF011.05D (1×) or CNF011.05D (100×)—followed by rebandaging. […]

Another assay concerns collagen in the dermis. The experiment in a line: Production of collagen in the dermis after subcutaneous doses. In kind it is in vivo. The source says: Levels of collagen were examined after different administrations of CNF011.05D: a single subcutaneous dose, two subcutaneous doses, and four subcutaneous doses.
In assay [3] the test system is Neutrophils. The experiment in a line: Neutrophil viability by flow cytometry (annexin V / propidium iodide), reduced serum. In kind it is cell-based, Wistar Rats. The note with it: reduced serum medium (1%), 24 hours. How it is done: (§1) Neutrophils or primary cultured endothelial cells from Wistar Rats were cultured in reduced serum medium (1%) in presence of CNF011.05D (3.0 μm/mL) and/or […] L-NAME, an inhibitor of NO synthase (and accordingly, an inhibitor of NO and resulting metabolite NO2 production). After 24 hours, cell viability was measured using flow cytometry analysis with FITC annexin V (1:500) and propidium iodide (10 μl of 50 mg/ml). The viability of both neutrophils (FIG. 4) and primary endothelial cells (FIG. 5) was increased with the peptide CNF011.05D alone, and this increase was diminished in presence of L-NAME.
In general terms: In flow cytometry, cells or beads pass a laser one at a time.

Assay [4] deals with primary cultured endothelial cells. Nature of the assay: Primary endothelial cell viability by flow cytometry (annexin V / propidium iodide), reduced serum. As to conditions: reduced serum medium (1%), 24 hours. In kind it is cell-based, Wistar Rats. How it is done:
as §1

The subject of assay [5] is Human fibroblasts. The experiment in a line: Production of fibronectin by fibroblasts, indirect immunofluorescence. The class given is cell-based. As to conditions: 0.35 μg; 4 days; vs saline; p<0.001. How it is done: (§2) Human fibroblasts were acquired from ear lobe skin fragments (0.5×0.5 cm) from 5 normal African-Brazilian female donors, with age ranging from 10 to 40 years old, respectively called 2/05, 3/05, 4/05, 6/05 and 8/05. The donors were submitted to excisional biopsies in a surgical environment after free voluntary consent.
(§3) Cells from the 6th subculture were placed in sterile culture plates and incubated with CNF011.05D at concentrations of 0.35 μg and 5 μg in culture medium for 4 days. The control group consisted of fibroblasts cultured under the same conditions, in which saline solution (a solvent of CNF011.05D) was added in the place of CNF011.05D.
(§4) Indirect immunofluorescence was performed using (1) Anti-fibronectin (cellular) mAb OR anti-human tenascin mAb (Sigma-USA); and (2) Alexa Fluor 488 (Molecular Probes-USA).
Samples tested are FBN-CN (cells treated with saline), FBN-0.35 (cells treated with CNF011.05D at 0.35 μg), and FBN-5 μg (cells treated with CNF011.05D at 5 μg).

For assay [6], the system named is Neutrophils. Nature of the assay: NO2 production by neutrophils, Griess reaction. In kind it is cell-based, Wistar Rats. The note with it: 1.5 μg/ml; 18 hours; absorbance at 550 nm. The method, then:
Neutrophils were cultured for 18 hours with CNF011.05D (1.5 μg/ml), and production of NO metabolite NO2 secreted into culture was assessed by use of the Griess reaction, and measurement of absorbance at 550 nm.
In general terms: The Griess reaction detects nitrite, a stable product of nitric oxide.

Assay [7] concerns punch wounds. The experiment in a line: Wound healing in rats, 6 mm punch wounds. The class given is in vivo, Wistar rats. The method, then:
Size and microscopic appearance of punch wounds was assessed in rats after a single dose of CNF011.05D. The rats were Wistar rats of 6-to-8 weeks of age, which were anesthesized and operated on the dorsal side of their backs. Following clipping of hair and scrub sterilization, wounds were made in each rat using a 6 mm biopsy punch. Following wounding and drying with sterile gauze, wounds were subjected to (1) bandaging (Standard Care) or (2) application of CNF011.05D (235 nM in saline) followed by bandaging. Wounds evaluated at Days 3, 7, 14, and 21 were assessed by veterinarians and documented as to whether the wound was healing normally for the day post-wounding, and the size of the wound in cm^2.

The subject of assay [8] is Human fibroblasts. Nature of the assay: Production of tenascin by fibroblasts, indirect immunofluorescence. In kind it is cell-based. The note with it: 0.35 μg; 4 days; vs saline; p<0.001. The method, then:
as §2, §3, §4
Samples tested are CN (cells treated with saline), TN-0.35 (cells treated with CNF011.05D at 0.35 μg), and TN-5 μg (cells treated with CNF011.05D at 5 μg).

The mark [9] stands for this setting: 1x: 1 ml at 1.57 μg/ml in saline, daily, six wounds, Day 5.
Setting [10] is: 1x: 1 ml at 1.57 μg/ml in saline, daily, six wounds, Day 7.
The mark [11] stands for this setting: 100x: 1 ml at 157 μg/ml in saline, daily, six wounds, Day 7.
Setting [12] is: CNF011.05D 3.0 μm/mL plus 1M L-NAME.

As for APLWILSTDYDNYAIGYSC [CNF011.05B], the “cell viability (% viability)” value in [1] is “augment”.

In the case of YAIGYSCKDYK [CNF011.05D], the “cell viability (% viability)” value in [1] was “augment”. Further, the “Granulation Tissue Filling No (wounds)” value in the assay with punch wounds [2] (1x: 1 ml at 1.57 μg/ml in saline, daily, six wounds, Day 1) is 6; in the assay on punch wounds [2] (setting [9]), 3; in the assay with punch wounds [2] (setting [10]), 2; in the assay with punch wounds [2] (1x: 1 ml ointment at 1.57 μg/ml in Hydroxyethyl cellulose/Glycerin (20%/80%), two wounds, Day 1), 2; with punch wounds [2] (100x: 1 ml at 157 μg/ml in saline, daily, six wounds, Day 1), 6; with punch wounds [2] (100x: 1 ml at 157 μg/ml in saline, daily, six wounds, Day 5), 6. The “Granulation Tissue Filling No (wounds)” value worked out at 5 in the assay with punch wounds [2] (setting [11]) and 2 in the assay with punch wounds [2] (100x: 1 ml ointment at 157 μg/ml in Hydroxyethyl cellulose/Glycerin (20%/80%), two wounds, Day 1). Further, the “Granulation Tissue Filling Yes (wounds)” value turned out to be 3 with punch wounds [2] (setting [9]); 4 with punch wounds [2] (setting [10]); 6 in the assay with punch wounds [2] (1x: 1 ml at 1.57 μg/ml in saline, daily, six wounds, Day 10); 6 in the assay with punch wounds [2] (1x: 1 ml at 1.57 μg/ml in saline, daily, six wounds, Day 14); 2 in the assay with punch wounds [2] (1x: 1 ml ointment at 1.57 μg/ml in Hydroxyethyl cellulose/Glycerin (20%/80%), two wounds, Day 5); 2 in the assay on punch wounds [2] (1x: 1 ml ointment at 1.57 μg/ml in Hydroxyethyl cellulose/Glycerin (20%/80%), two wounds, Day 7). Also, the “Granulation Tissue Filling Yes (wounds)” value with punch wounds [2] (1x: 1 ml ointment at 1.57 μg/ml in Hydroxyethyl cellulose/Glycerin (20%/80%), two wounds, Day 10) is given as 2; in the assay with punch wounds [2] (1x: 1 ml ointment at 1.57 μg/ml in Hydroxyethyl cellulose/Glycerin (20%/80%), two wounds, Day 14) it was 2; in the assay on punch wounds [2] (setting [11]), 1; in the assay with punch wounds [2] (100x: 1 ml at 157 μg/ml in saline, daily, six wounds, Day 10) it was 6; in the assay with punch wounds [2] (100x: 1 ml at 157 μg/ml in saline, daily, six wounds, Day 14) it was 6; in the assay on punch wounds [2] (100x: 1 ml ointment at 157 μg/ml in Hydroxyethyl cellulose/Glycerin (20%/80%), two wounds, Day 5), 2. The “Granulation Tissue Filling Yes (wounds)” value in the assay with punch wounds [2] (100x: 1 ml ointment at 157 μg/ml in Hydroxyethyl cellulose/Glycerin (20%/80%), two wounds, Day 7) was found to be 2; with punch wounds [2] (100x: 1 ml ointment at 157 μg/ml in Hydroxyethyl cellulose/Glycerin (20%/80%), two wounds, Day 10), 2; with punch wounds [2] (100x: 1 ml ointment at 157 μg/ml in Hydroxyethyl cellulose/Glycerin (20%/80%), two wounds, Day 14) it was 2. Besides, the “Treated Skin Collagen (%)” value in the assay with collagen in the dermis (four subcutaneous doses 0.30 μg (total 1.20), 4 weeks after dose) is 37.60% and 34.94%; with collagen in the dermis (single subcutaneous dose 0.30 μg, 1 week after dose) it was 41.20% and 57.15%; in the assay on collagen in the dermis (single subcutaneous dose 0.30 μg, 2 weeks after dose), 43.78% and 39.20%; in the assay with collagen in the dermis (single subcutaneous dose 0.30 μg, 12 weeks after dose), 29.57% and 27.22%; in the assay on collagen in the dermis (two subcutaneous doses 0.30 μg one week apart (total 0.60), 2 weeks after dose), 44.19% and 37.91%; with collagen in the dermis (two subcutaneous doses 0.30 μg one week apart (total 0.60), 12 weeks after dose), 39.23% and 47.33%. In the assay with Neutrophils [3] (setting [12]), the “increase of viability of neutrophils in presence of L-NAME” value is listed as “diminished”. Besides, in the assay on Neutrophils [3] (CNF011.05D alone 3.0 μm/mL), the viability of neutrophils entry is on record as “increased”. Besides, the “increase of viability of primary endothelial cells in presence of L-NAME” value in [4] (setting [12]) is given as “diminished”. Further, in [4] (CNF011.05D alone 3.0 μm/mL), the “viability of primary endothelial cells” value is given as “increased”. Moreover, the “production of fibronectin by fibroblasts” value in the assay with Human fibroblasts [5] is reported as “significant enhancement”. The “production of NO2” value in the assay on Neutrophils [6] is listed as “increases”. Moreover, in the assay with punch wounds [7] (235 nM in saline, single dose, then bandaging, Day 3, 8 rats per timepoint), the “Day 3 Size of punch wounds” value was found to be 0.200 cm^2. Moreover, in the assay on punch wounds [7] (235 nM in saline, single dose, then bandaging, Day 7, 8 rats per timepoint), the “Day 7 Size of punch wounds” value was 0.084 cm^2. Besides, the “Day 14 Size of punch wounds” value in the assay with punch wounds [7] (235 nM in saline, single dose, then bandaging, Day 14, 8 rats per timepoint) is listed as 0.053 cm^2. Also, the “Day 21 Size of punch wounds” value in the assay with punch wounds [7] (235 nM in saline, single dose, then bandaging, Day 21, 8 rats per timepoint) is listed as “Scar **”. Moreover, in the assay with punch wounds [7] (21 days, in comparison to Standard Care (negative control)), the “scar size and color” value was “scars of reduced size and color”. The “tenascin production by fibroblasts” value in the assay with Human fibroblasts [8] is reported as “significant difference”.
